Question: For COC(=O)Nc1nc2ccc(C(=O)c3ccc(F)cc3)cc2[nH]1, which solubility (mole fraction) (in 1,4-dioxane, 288.15 K) is on record?
Answer: 8.29e-05

Question: What about the solubility (mole fraction) (in 1,4-dioxane, 293.15 K) of the same molecule?
Answer: 9.83e-05

Question: And the solubility (mole fraction) (in 1,4-dioxane, 298.15 K)?
Answer: 0.00012

Question: What about the solubility (mole fraction) (in 1,4-dioxane, 303.15 K) of the same molecule?
Answer: 0.00014

Question: And the solubility (mole fraction) (in 1,4-dioxane, 308.15 K)?
Answer: 0.000168

Question: What about the solubility (mole fraction) (in 1,4-dioxane, 313.15 K) of the same molecule?
Answer: 0.000195

Question: What about the solubility (mole fraction) (in 1,4-dioxane, 318.15 K) of the same molecule?
Answer: 0.000229

Question: And the solubility (mole fraction) (in 1,4-dioxane, 323.15 K)?
Answer: 0.000266

Question: What about the solubility (mole fraction) (in 1,4-dioxane, 328.15 K) of the same molecule?
Answer: 0.000308

Question: And the solubility (mole fraction) (in 1,4-dioxane, 333.15 K)?
Answer: 0.000357

Question: What about the solubility (mole fraction) (in 2-butanone, 283.15 K) of the same molecule?
Answer: 0.000232

Question: What about the solubility (mole fraction) (in 2-butanone, 288.15 K) of the same molecule?
Answer: 0.000305

Question: And the solubility (mole fraction) (in 2-butanone, 293.15 K)?
Answer: 0.000401

Question: And the solubility (mole fraction) (in 2-butanone, 298.15 K)?
Answer: 0.000516

Question: And the solubility (mole fraction) (in 2-butanone, 303.15 K)?
Answer: 0.000682

Question: What about the solubility (mole fraction) (in 2-butanone, 308.15 K) of the same molecule?
Answer: 0.000837

Question: And the solubility (mole fraction) (in 2-butanone, 313.15 K)?
Answer: 0.00104

Question: And the solubility (mole fraction) (in 2-butanone, 318.15 K)?
Answer: 0.00132

Question: What about the solubility (mole fraction) (in 2-butanone, 323.15 K) of the same molecule?
Answer: 0.0017

Question: And the solubility (mole fraction) (in 2-butanone, 328.15 K)?
Answer: 0.00204

Question: What about the solubility (mole fraction) (in 2-butanone, 333.15 K) of the same molecule?
Answer: 0.00248

Question: And the solubility (mole fraction) (in DMF, 283.15 K)?
Answer: 0.000572

Question: And the solubility (mole fraction) (in DMF, 288.15 K)?
Answer: 0.000708

Question: What about the solubility (mole fraction) (in DMF, 293.15 K) of the same molecule?
Answer: 0.000821

Question: And the solubility (mole fraction) (in DMF, 298.15 K)?
Answer: 0.00098

Question: And the solubility (mole fraction) (in DMF, 303.15 K)?
Answer: 0.00116

Question: And the solubility (mole fraction) (in DMF, 308.15 K)?
Answer: 0.00138

Question: What about the solubility (mole fraction) (in DMF, 313.15 K) of the same molecule?
Answer: 0.00162

Question: And the solubility (mole fraction) (in DMF, 318.15 K)?
Answer: 0.00188

Question: What about the solubility (mole fraction) (in DMF, 323.15 K) of the same molecule?
Answer: 0.0022

Question: And the solubility (mole fraction) (in DMF, 328.15 K)?
Answer: 0.00259

Question: And the solubility (mole fraction) (in DMF, 333.15 K)?
Answer: 0.00309

Question: What about the solubility (mole fraction) (in DMSO, 293.15 K) of the same molecule?
Answer: 0.00191

Question: And the solubility (mole fraction) (in DMSO, 298.15 K)?
Answer: 0.00221

Question: And the solubility (mole fraction) (in DMSO, 303.15 K)?
Answer: 0.00261

Question: What about the solubility (mole fraction) (in DMSO, 308.15 K) of the same molecule?
Answer: 0.00303

Question: And the solubility (mole fraction) (in DMSO, 313.15 K)?
Answer: 0.00358

Question: And the solubility (mole fraction) (in DMSO, 318.15 K)?
Answer: 0.00419

Question: And the solubility (mole fraction) (in DMSO, 323.15 K)?
Answer: 0.00481

Question: And the solubility (mole fraction) (in DMSO, 328.15 K)?
Answer: 0.00548

Question: And the solubility (mole fraction) (in DMSO, 333.15 K)?
Answer: 0.00627

Question: And the solubility (mole fraction) (in NMP, 283.15 K)?
Answer: 0.00078

Question: And the solubility (mole fraction) (in NMP, 288.15 K)?
Answer: 0.000918

Question: What about the solubility (mole fraction) (in NMP, 293.15 K) of the same molecule?
Answer: 0.00103

Question: And the solubility (mole fraction) (in NMP, 298.15 K)?
Answer: 0.00122

Question: What about the solubility (mole fraction) (in NMP, 303.15 K) of the same molecule?
Answer: 0.00142

Question: And the solubility (mole fraction) (in NMP, 308.15 K)?
Answer: 0.00162

Question: And the solubility (mole fraction) (in NMP, 313.15 K)?
Answer: 0.00188

Question: And the solubility (mole fraction) (in NMP, 318.15 K)?
Answer: 0.00215

Question: And the solubility (mole fraction) (in NMP, 323.15 K)?
Answer: 0.00252

Question: And the solubility (mole fraction) (in NMP, 328.15 K)?
Answer: 0.00308

Question: And the solubility (mole fraction) (in NMP, 333.15 K)?
Answer: 0.00373

Question: And the solubility (mole fraction) (in ethanol, 283.15 K)?
Answer: 1.03e-06

Question: And the solubility (mole fraction) (in ethanol, 288.15 K)?
Answer: 1.56e-06

Question: And the solubility (mole fraction) (in ethanol, 293.15 K)?
Answer: 2.41e-06

Question: What about the solubility (mole fraction) (in ethanol, 298.15 K) of the same molecule?
Answer: 3.74e-06

Question: And the solubility (mole fraction) (in ethanol, 303.15 K)?
Answer: 5.44e-06

Question: What about the solubility (mole fraction) (in ethanol, 308.15 K) of the same molecule?
Answer: 7.73e-06

Question: What about the solubility (mole fraction) (in ethanol, 313.15 K) of the same molecule?
Answer: 1.01e-05

Question: And the solubility (mole fraction) (in ethanol, 318.15 K)?
Answer: 1.41e-05

Question: What about the solubility (mole fraction) (in ethanol, 323.15 K) of the same molecule?
Answer: 1.94e-05

Question: And the solubility (mole fraction) (in ethanol, 328.15 K)?
Answer: 2.55e-05

Question: And the solubility (mole fraction) (in ethanol, 333.15 K)?
Answer: 3.33e-05

Question: And the solubility (mole fraction) (in isobutanol, 283.15 K)?
Answer: 1.2e-05

Question: And the solubility (mole fraction) (in isobutanol, 288.15 K)?
Answer: 1.62e-05

Question: And the solubility (mole fraction) (in isobutanol, 293.15 K)?
Answer: 2.13e-05

Question: And the solubility (mole fraction) (in isobutanol, 298.15 K)?
Answer: 2.73e-05

Question: And the solubility (mole fraction) (in isobutanol, 303.15 K)?
Answer: 3.55e-05

Question: What about the solubility (mole fraction) (in isobutanol, 308.15 K) of the same molecule?
Answer: 4.61e-05

Question: What about the solubility (mole fraction) (in isobutanol, 313.15 K) of the same molecule?
Answer: 5.88e-05

Question: What about the solubility (mole fraction) (in isobutanol, 318.15 K) of the same molecule?
Answer: 7.44e-05

Question: What about the solubility (mole fraction) (in isobutanol, 323.15 K) of the same molecule?
Answer: 9.39e-05

Question: What about the solubility (mole fraction) (in isobutanol, 328.15 K) of the same molecule?
Answer: 0.000116

Question: What about the solubility (mole fraction) (in isobutanol, 333.15 K) of the same molecule?
Answer: 0.000135

Question: And the solubility (mole fraction) (in isopropanol, 283.15 K)?
Answer: 6.58e-06

Question: And the solubility (mole fraction) (in isopropanol, 288.15 K)?
Answer: 7.97e-06

Question: What about the solubility (mole fraction) (in isopropanol, 293.15 K) of the same molecule?
Answer: 9.58e-06

Question: And the solubility (mole fraction) (in isopropanol, 298.15 K)?
Answer: 1.14e-05

Question: What about the solubility (mole fraction) (in isopropanol, 303.15 K) of the same molecule?
Answer: 1.34e-05

Question: What about the solubility (mole fraction) (in isopropanol, 308.15 K) of the same molecule?
Answer: 1.63e-05

Question: And the solubility (mole fraction) (in isopropanol, 313.15 K)?
Answer: 1.93e-05

Question: And the solubility (mole fraction) (in isopropanol, 318.15 K)?
Answer: 2.22e-05

Question: What about the solubility (mole fraction) (in isopropanol, 323.15 K) of the same molecule?
Answer: 2.65e-05

Question: And the solubility (mole fraction) (in isopropanol, 328.15 K)?
Answer: 3.12e-05

Question: What about the solubility (mole fraction) (in isopropanol, 333.15 K) of the same molecule?
Answer: 3.56e-05

Question: What about the solubility (mole fraction) (in methanol, 283.15 K) of the same molecule?
Answer: 7.08e-07

Question: What about the solubility (mole fraction) (in methanol, 288.15 K) of the same molecule?
Answer: 1.05e-06

Question: What about the solubility (mole fraction) (in methanol, 293.15 K) of the same molecule?
Answer: 1.57e-06

Question: What about the solubility (mole fraction) (in methanol, 298.15 K) of the same molecule?
Answer: 2.25e-06

Question: What about the solubility (mole fraction) (in methanol, 303.15 K) of the same molecule?
Answer: 3.15e-06

Question: What about the solubility (mole fraction) (in methanol, 308.15 K) of the same molecule?
Answer: 4.41e-06

Question: And the solubility (mole fraction) (in methanol, 313.15 K)?
Answer: 6.31e-06

Question: And the solubility (mole fraction) (in methanol, 318.15 K)?
Answer: 8.49e-06

Question: And the solubility (mole fraction) (in methanol, 323.15 K)?
Answer: 1.17e-05

Question: What about the solubility (mole fraction) (in methanol, 328.15 K) of the same molecule?
Answer: 1.59e-05

Question: What about the solubility (mole fraction) (in methanol, 333.15 K) of the same molecule?
Answer: 2.14e-05

Question: What about the solubility (mole fraction) (in n-butanol, 283.15 K) of the same molecule?
Answer: 1.93e-05

Question: And the solubility (mole fraction) (in n-butanol, 288.15 K)?
Answer: 2.58e-05

Question: What about the solubility (mole fraction) (in n-butanol, 293.15 K) of the same molecule?
Answer: 3.46e-05

Question: And the solubility (mole fraction) (in n-butanol, 298.15 K)?
Answer: 4.36e-05

Question: What about the solubility (mole fraction) (in n-butanol, 303.15 K) of the same molecule?
Answer: 5.64e-05

Question: What about the solubility (mole fraction) (in n-butanol, 308.15 K) of the same molecule?
Answer: 7.1e-05

Question: What about the solubility (mole fraction) (in n-butanol, 313.15 K) of the same molecule?
Answer: 8.77e-05

Question: And the solubility (mole fraction) (in n-butanol, 318.15 K)?
Answer: 0.000111

Question: What about the solubility (mole fraction) (in n-butanol, 323.15 K) of the same molecule?
Answer: 0.000141

Question: What about the solubility (mole fraction) (in n-butanol, 328.15 K) of the same molecule?
Answer: 0.000173

Question: What about the solubility (mole fraction) (in n-butanol, 333.15 K) of the same molecule?
Answer: 0.000218

Question: And the solubility (mole fraction) (in n-propanol, 283.15 K)?
Answer: 7.7e-06

Question: And the solubility (mole fraction) (in n-propanol, 288.15 K)?
Answer: 1e-05

Question: What about the solubility (mole fraction) (in n-propanol, 293.15 K) of the same molecule?
Answer: 1.32e-05

Question: What about the solubility (mole fraction) (in n-propanol, 298.15 K) of the same molecule?
Answer: 1.69e-05

Question: What about the solubility (mole fraction) (in n-propanol, 303.15 K) of the same molecule?
Answer: 2.16e-05

Question: And the solubility (mole fraction) (in n-propanol, 308.15 K)?
Answer: 2.64e-05

Question: What about the solubility (mole fraction) (in n-propanol, 313.15 K) of the same molecule?
Answer: 3.39e-05

Question: And the solubility (mole fraction) (in n-propanol, 318.15 K)?
Answer: 4.31e-05

Question: What about the solubility (mole fraction) (in n-propanol, 323.15 K) of the same molecule?
Answer: 5.53e-05

Question: And the solubility (mole fraction) (in n-propanol, 328.15 K)?
Answer: 6.78e-05

Question: What about the solubility (mole fraction) (in n-propanol, 333.15 K) of the same molecule?
Answer: 8.09e-05

Question: What about the solubility (mole fraction) (in water, 283.15 K) of the same molecule?
Answer: 1.03e-07

Question: And the solubility (mole fraction) (in water, 288.15 K)?
Answer: 1.31e-07

Question: And the solubility (mole fraction) (in water, 293.15 K)?
Answer: 1.67e-07

Question: What about the solubility (mole fraction) (in water, 298.15 K) of the same molecule?
Answer: 2.12e-07

Question: What about the solubility (mole fraction) (in water, 303.15 K) of the same molecule?
Answer: 2.6e-07

Question: What about the solubility (mole fraction) (in water, 308.15 K) of the same molecule?
Answer: 3.23e-07

Question: What about the solubility (mole fraction) (in water, 313.15 K) of the same molecule?
Answer: 4e-07

Question: And the solubility (mole fraction) (in water, 318.15 K)?
Answer: 4.96e-07

Question: What about the solubility (mole fraction) (in water, 323.15 K) of the same molecule?
Answer: 6.07e-07

Question: And the solubility (mole fraction) (in water, 328.15 K)?
Answer: 7.33e-07

Question: What about the solubility (mole fraction) (in water, 333.15 K) of the same molecule?
Answer: 8.81e-07
